Values after ≈ are worked out from the molar mass of the structure shown. Values joined by “and” are separate entries in the source; they are usually repeats but may differ in a detail not shown here. Equal entries are not always repeated. Marks after values point to notes of the source that are not given here.
Columns and labels:
[1] = tested on: H3K9ac; assay: Western blot, differentiated CAD cell lysates, H3K9ac levels; assay type: cell-based; details: differentiated CAD cells, DMSO = 100.00%
Text: (§1) Table 20 provides results of in vitro and in vivo pharmacokinetics performed for each of the represented compounds.

[2] = In vivo PK, oral gavage, plasma; set-up: species or system Rat (SD); details: Rat, PO 5 mg/kg, BQL limit 1.00 ng/mL, listed as ADG I-205, 5 mg/kg
[3] = In vivo PK, IV dose, plasma; set-up: species or system Rat (SD); details: for Plasma concentration, mean / Plasma concentration, individual animal: IV 1 mg/kg
Text: as §1
(§2) Tables 4 and 5 depict the summary of rat plasma sample concentrations after administration of ADG I-204. FIG. 6 provides a summary of rat plasma and brain concentrations.

[4] = Turbidity-based aqueous solubility; assay type: physicochemical; details: aqueous solution (composition not given), kinetic from dmso stock, read-out: highest soluble concentration
Text: as §1

[5] = tested on: Male Sprague-Dawley rat; assay: Fear conditioning in rats (cued memory test); assay type: in vivo; details: IP, dosed 5 min before and 30 min after acquisition, versus vehicle
Procedure: A. Fear Conditioning in Rats
Species: Rat; Strain: Male Sprague-Dawley (CD-SD strain 001; Charles River Labs); Age or weight: 7 to 9 weeks, approximately 250 grams
Formulation(s): 5% DMSO in 0.5% methylcellulose
Dose Levels: 4 mg/kg total; distributed into 2 injections of 2 mg/kg
Dose Frequency: Twice; once prior to shock cycle and once right after last shock • 1st Injection—5 minutes before being placed into fear conditioning chamber • 2nd Injection—30 minutes after coming out of fear conditioning chamber (alternatively 30 min after last shock) • Study duration: 3 days
Rats are handled for 3 consecutive days for ˜2 minutes each day prior to the experiment. […]
Day 1—Conditioning (Acquisition)—animals are placed in the chambers and presented a training session (Context A). […] Freezing behavior (immobility) is recorded in 10-second intervals during the session. Percent baseline freezing behavior is determined in the 3-minute habituation period. […]
The rats were provided 3 minutes habituation. […] Data is recorded in 10 see epochs. […]
Animals are placed in the chambers with a different (lemon) scent and black Plexiglas floor over the grid floor (Context B). Freezing behavior in response to an altered context is recorded for 2 minutes in 10-second intervals. Then the 80 dB tone is presented for 8 minutes and immobility is recorded in 10-second intervals to measure freezing response to the tone cue.

[6] = In vivo PK, oral gavage, plasma; set-up: species or system Rat (SD); details: SD, rat, plasma, po, 5 mg/kg
Text: as §1, §2

[7] = Microsomal stability assay (half-life), human; assay type: in vitro ADME; details: Human microsomes, read-out: Microsomal stability T1/2
Text: as §1

[8] = Microsomal stability assay (half-life), rat; assay type: in vitro ADME; details: Rat (SD) microsomes, read-out: Microsomal stability T1/2
Text: as §1

[9] = Protein binding via Rapid Equilibrium Dialysis - plasma; assay type: in vitro ADME; details: Rat (SD) plasma, 2 μM
Text: as §1

[10] = Microsomal stability assay (half-life), mouse; assay type: in vitro ADME; details: Mouse (CD1) microsomes, read-out: Microsomal stability T1/2
Text: as §1

[11] = In vivo PK, IV dose, Terminal - brain (brain availability); set-up: species or system Rat (SD); details: for Brain concentration, mean / Brain concentration, individual animal: IV 1 mg/kg
Procedure: Table 3 and FIG. 5 depict the brain availability of ADG I-204, ADG I-205, ADG I-206, and ADG I-207 after IV administration of 1 mg/kg dose.

## COCCNC(=O)Nc1ccc2nc(-c3cccs3)c(-c3cccs3)nc2c1 [ADG-205c, 1-(2,3-di(thiophen-2-yl)quinoxalin-6-yl)-3-(2-methoxyethyl)urea]
[1]; 1 uM
  H3K9ac levels normalized to H3 and DMSO control: 21.62%
[1]; 5 uM
  H3K9ac levels normalized to H3 and DMSO control: 17.18%
[1]; 10 uM
  H3K9ac levels normalized to H3 and DMSO control: 14.26%
[1]; 20 uM
  H3K9ac levels normalized to H3 and DMSO control: 21.52%
[1]; 50 uM
  H3K9ac levels normalized to H3 and DMSO control: 29.67%
[1]; 100 uM
  H3K9ac levels normalized to H3 and DMSO control: 16.42%
[2]; 0.250 hr
  Plasma concentration, individual animal: 30.4 ng/mL and 73.0 ng/mL and 147 ng/mL
[2]; 0.500 hr
  Plasma concentration, individual animal: 145 ng/mL and 298 ng/mL and 669 ng/mL
[2]; 1.00 hr
  Plasma concentration, individual animal: 550 ng/mL and 906 ng/mL
[2]; 4.00 hr
  Plasma concentration, individual animal: 710 ng/mL and 430 ng/mL and 938 ng/mL
[2]; 8.00 hr
  Plasma concentration, individual animal: 531 ng/mL and 235 ng/mL and 297 ng/mL
[2]; 24.0 hr
  Plasma concentration, individual animal: 3.51 ng/mL and 1.48 ng/mL and 4.19 ng/mL
[3]; Rat (SD), 8 hr, terminal, listed as ADG I-205, 1 mg/kg
  Plasma concentration, mean: 29 ng/mL
[3]; Rat (SD), 24 hr, terminal, BQL limit 1.00 ng/mL (ADG I-205: 2.00 ng/mL), 1 mg/kg
  Plasma concentration, mean: 3 ng/mL
[3]; Rat, 0.0830 hr, terminal, third animal received only 70% of the test article, listed as ADG I-205, 1 mg/kg
  Plasma concentration, individual animal: 2310 ng/mL and 1700 ng/mL and 865*** ng/mL
[3]; Rat, 0.500 hr, not terminal (animals 4, 5 and 6), listed as ADG I-205, 1 mg/kg
  Plasma concentration, individual animal: 8520** ng/mL and 1380 ng/mL and 1470 ng/mL
[3]; Rat, 1.00 hr, terminal, listed as ADG I-205, 1 mg/kg
  Plasma concentration, individual animal: 895 ng/mL and 1190 ng/mL
[3]; Rat, 4.00 hr, terminal, BQL limit 1.00 ng/mL (ADG I-205: 2.00 ng/mL), 1 mg/kg
  Plasma concentration, individual animal: 187 ng/mL and 92.3 ng/mL
[3]; Rat, 8.00 hr, terminal, BQL limit 1.00 ng/mL (ADG I-205: 2.00 ng/mL), 1 mg/kg
  Plasma concentration, individual animal: 27.0 ng/mL and 31.9 ng/mL
[3]; Rat, 24.0 hr, terminal, BQL limit 1.00 ng/mL (ADG I-205: 2.00 ng/mL), 1 mg/kg
  Plasma concentration, individual animal: BQL
[3]; SD, rat, plasma, iv, 1 mg/kg, Rat (SD), 0.083 hr, terminal, read-out: Plasma concentration, mean
  concentration at 0.083 h: 1630 ng/mL
[3]; SD, rat, plasma, iv, 1 mg/kg, Rat (SD), 0.500 hr, not a terminal time point (animals 4, 5 and 6)
  concentration at 0.5 h: 3790 ng/mL
[3]; SD, rat, plasma, iv, 1 mg/kg, Rat (SD), 1 hr, terminal, read-out: Plasma concentration, mean
  concentration at 1 h: 1040 ng/mL
[3]; SD, rat, plasma, iv, 1 mg/kg, Rat (SD), 4 hr, terminal, read-out: Plasma concentration, mean
  concentration at 4 h: 140 ng/mL
[3]; SD, rat, plasma, iv, 1 mg/kg, Rat (SD), 8 hr, terminal, read-out: Plasma concentration, mean
  concentration at 8 h: 29.1 ng/mL
[3]; SD, rat, plasma, iv, 1 mg/kg, Rat (SD), 24 hr, terminal, BQL limit 1.00 ng/mL (ADG I-205: 2.00 ng/mL), read-out: Plasma concentration, mean
  concentration at 24 h: 2.63 ng/mL
[3]; SD, rat, plasma, iv, 1 mg/kg, Rat, 1.00 hr, terminal, read-out: Plasma concentration, individual animal
  concentration at 1 h: 1030 ng/mL
[3]; SD, rat, plasma, iv, 1 mg/kg, Rat, 8.00 hr, terminal, BQL limit 1.00 ng/mL (ADG I-205: 2.00 ng/mL), read-out: Plasma concentration, individual animal
  concentration at 8 h: 28.5 ng/mL
[3]; SD, rat, plasma, iv, 1 mg/kg, Rat, 24.0 hr, terminal, BQL limit 1.00 ng/mL (ADG I-205: 2.00 ng/mL), read-out: Plasma concentration, individual animal
  concentration at 24 h: 2.63 ng/mL
[4]
  solubility: 5 µM (≈ 2.05 µg/mL)
[5]; listed as EPV018
  Freezing during cue presentation (cued memory test): significant reduced freezing
[5]; listed as EPV-018
  Freezing during cue presentation (cued memory test): statistically significant reduction
[6]; Rat (SD), 0.25 hr, BQL = below quantitation limit (1.00 ng/mL), read-out: Plasma concentration, mean
  concentration at 0.25 h: 83.5 ng/mL
[6]; Rat (SD), 0.5 hr, BQL = below quantitation limit (1.00 ng/mL), read-out: Plasma concentration, mean
  concentration at 0.5 h: 371 ng/mL
[6]; Rat (SD), 1 hr, BQL = below quantitation limit (1.00 ng/mL), read-out: Plasma concentration, mean
  concentration at 1 h: 641 ng/mL
[6]; Rat (SD), 4 hr, BQL = below quantitation limit (1.00 ng/mL)
  concentration at 4 h: 693 ng/mL
[6]; Rat (SD), 8 hr, BQL = below quantitation limit (1.00 ng/mL), read-out: Plasma concentration, mean
  concentration at 8 h: 354 ng/mL
[6]; Rat (SD), 24 hr, BQL = below quantitation limit (1.00 ng/mL), read-out: Plasma concentration, mean
  concentration at 24 h: 3.06 ng/mL
[6]; Rat, 1.00 hr, BQL limit 1.00 ng/mL, read-out: Plasma concentration, individual animal
  concentration at 1 h: 466 ng/mL
[7]
  half-life at 2 μM: 27.8 min
[8]
  half-life at 2 μM: 11.6 min
[9]
  Protein binding, plasma: % Protein free: 0.2915 % Protein free
[10]
  half-life at 2 μM: 4.72 min
[11]; Rat (SD), 4 hr, BQL limit 10.0 ng/g (204, 206), 20.0 ng/g (205, 207), listed as ADG I-205, 1 mg/kg
  Brain concentration, mean: 23 ng/g
[11]; Rat (SD), 8 hr, BQL limit 10.0 ng/g (204, 206), 20.0 ng/g (205, 207)
  Brain concentration, mean: BQL
[11]; Rat (SD), 24 hr, BQL limit 10.0 ng/g (204, 206), 20.0 ng/g (205, 207)
  Brain concentration, mean: BQL
[11]; Rat, 0.0830 hr, third animal received only 70% of the test article, listed as ADG I-205, 1 mg/kg
  Brain concentration, individual animal: 544 ng/g and 487 ng/g and 213*** ng/g
[11]; Rat, 1.00 hr, listed as ADG I-205, 1 mg/kg
  Brain concentration, individual animal: 102 ng/g and 171 ng/g
[11]; Rat, 4.00 hr, BQL limit 10.0 ng/g (204, 206), 20.0 ng/g (205, 207), listed as ADG I-205, 1 mg/kg
  Brain concentration, individual animal: BQL
[11]; Rat, 8.00 hr, BQL limit 10.0 ng/g (204, 206), 20.0 ng/g (205, 207)
  Brain concentration, individual animal: BQL
[11]; Rat, 24.0 hr, BQL limit 10.0 ng/g (204, 206), 20.0 ng/g (205, 207)
  Brain concentration, individual animal: BQL
[11]; SD, rat, brain, iv, 1 mg/kg, Rat (SD), 0.083 hr
  concentration at 0.083 h: 415 ng/g
[11]; SD, rat, brain, iv, 1 mg/kg, Rat (SD), 1 hr, read-out: Brain concentration, mean
  concentration at 1 h: 135 ng/g
[11]; SD, rat, brain, iv, 1 mg/kg, Rat (SD), 4 hr, BQL limit 10.0 ng/g (204, 206), 20.0 ng/g (205, 207), read-out: Brain concentration, mean
  concentration at 4 h: 23.4 ng/g
[11]; SD, rat, brain, iv, 1 mg/kg, Rat, 1.00 hr, read-out: Brain concentration, individual animal
  concentration at 1 h: 132 ng/g
[11]; SD, rat, brain, iv, 1 mg/kg, Rat, 4.00 hr, BQL limit 10.0 ng/g (204, 206), 20.0 ng/g (205, 207), read-out: Brain concentration, individual animal
  concentration at 4 h: 23.4 ng/g

Reference: patent publication US20220117958A1, “COMPOSITIONS AND METHODS FOR INHIBITING ACSS2” (THE TRUSTEES OF THE UNIVERSITY OF PENNSYLVANIA, priority 2018, published 2022)
